Experimental data taken from patent EP4603105A1, “PHARMACEUTICAL COMPOSITION CONTAINING CYCLIC COMPOUND HAVING SELECTIVE KRAS INHIBITORY EFFECT AGAINST HRAS AND NRAS” (CHUGAI SEIYAKU KABUSHIKI KAISHA, priority 2022, dated 2024).
Like-named read-outs stand apart in the source and are kept apart here.

Experiments:
[1] = target: GDP-bound NRAS wild-type protein (Homo sapiens, UniProt P01111); assay: Binding to NRAS by surface plasmon resonance (SPR), KD and KD ratio to KRAS
How it was run: (§1)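 Measured at 30°C: SPR with GDP-loaded, E. coli-expressed biotin-Avi RAS captured (~100–300 RU), ascending 75 s compound injections, HBS pH 7.4 with GDP, MgCl2, 4% DMSO. KD from 1:1 fit.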

[2] = target: GDP-bound KRAS wild-type protein (Homo sapiens, UniProt P01116); assay: Binding to KRAS by surface plasmon resonance (SPR), dissociation constant KD
How it was run: as §1

[3] = system: human lung cancer strain NCI-H441; assay: NCI-H441 cell proliferation inhibitory activity (CellTiter-Glo, 4 days); assay type: cell-based; conditions: read-out: NCl-H441 IC50
How it was run: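 Signal came from […] measured per well once the reagent was added. Beforehand, cells were cultured at 37°C and 5% carbon dioxide on a compound series serially diluted in dimethyl sulfoxide.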

[4] = target: HRAS wild-type protein (Homo sapiens, UniProt P01112); assay: Binding to HRAS by surface plasmon resonance (SPR), KD and KD ratio to KRAS
How it was run: as §1

[5] = ratio of KD for GDP-bound NRAS wild-type protein to KD for KRAS
[6] = ratio of KD for HRAS wild-type protein to KD for KRAS
[7] = ratio of KD with respect to GDP-bound NRAS wild-type protein to KD with respect to KRAS
[8] = Single Cycle Kinetics, 1:1 binding model
[9] = 50% proliferation inhibitory concentration, four days
[10] = ratio of KD with respect to HRAS wild-type protein to KD with respect to KRAS

GDP-bound KRAS wild-type protein, sequence (P01116 1-188 isoform P01116-2): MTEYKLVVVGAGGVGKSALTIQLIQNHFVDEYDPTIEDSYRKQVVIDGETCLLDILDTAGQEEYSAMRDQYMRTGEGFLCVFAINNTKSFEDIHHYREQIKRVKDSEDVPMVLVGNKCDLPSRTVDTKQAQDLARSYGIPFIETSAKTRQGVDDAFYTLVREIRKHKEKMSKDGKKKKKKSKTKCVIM
HRAS wild-type protein, sequence (P01112 whole entry): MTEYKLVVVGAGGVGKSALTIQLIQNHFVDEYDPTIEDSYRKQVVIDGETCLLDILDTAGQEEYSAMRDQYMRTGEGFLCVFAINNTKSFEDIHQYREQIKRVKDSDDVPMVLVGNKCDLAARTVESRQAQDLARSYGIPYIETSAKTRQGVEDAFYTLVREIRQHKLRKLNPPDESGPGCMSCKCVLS
GDP-bound NRAS wild-type protein, sequence (P01111 whole entry): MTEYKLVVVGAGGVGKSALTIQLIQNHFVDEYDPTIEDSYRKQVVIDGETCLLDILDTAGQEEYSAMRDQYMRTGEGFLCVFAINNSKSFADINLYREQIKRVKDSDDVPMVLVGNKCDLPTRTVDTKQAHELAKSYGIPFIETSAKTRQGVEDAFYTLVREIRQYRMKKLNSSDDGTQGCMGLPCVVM

Kd ([2]; Single Cycle Kinetics) | IC50 ([3]; NCI-H441 cells, 4 days) | Kd ([2]; 1:1 binding model) | Kd [2, 8] | IC50 [3, 9] | SMILES | NRAS /KRAS [1, 5] | HRAS /KRAS [4, 6] | NRAS /KRAS [1, 7] | HRAS /KRAS [4, 10]
0.22 nM | 12.6 nM | – | – | – | CCC[C@H]1C(=O)N[C@@H](C2CCCC2)C(=O)N(C)CC(=O)N(C)[C@H]2C/C=C\CCN(C2=O)[C@@H](Cc2ccc(C)cc2)C(=O)N(C)CC(=O)N[C@@H](CCc2ccc(C(F)(F)F)c(Cl)c2)C(=O)N2CC3(CC3)C[C@H]2C(=O)N(C)C2(CCC2)C(=O)N(C)[C@@H]([C@@H](C)CC)C(=O)N(C)[C@H](C(=O)N(C)C)CC(=O)N1C [PP3326] | A (a compound having 10 or more and less than 20 is denoted as A) | A (a compound having 10 or more and less than 20 is denoted as A) | – | –
– | 13.1 nM | 0.29 nM | – | – | CC[C@H](C)[C@@H]1NC(=O)[C@H](COC)N(C)C(=O)C[C@@H](C(=O)N(C)C)N(C)C(=O)[C@H](C2CCCCC2)N(C)C(=O)C2(CC(C)(C)C2)NC(=O)[C@@H]2C[C@@H](OC(C)C)CN2C(=O)[C@H](CCc2ccc(Cl)c(Cl)c2)NC(=O)CN(C)C(=O)[C@H](Cc2ccc(C(F)(F)F)cc2)N2CC/C=C\C[C@@H](C2=O)N(C)C(=O)CN(C)C1=O [PP2662] | AA (a compound having 20 or more is denoted as AA) | A (a compound having 10 or more and less than 20 is denoted as A) | – | –
– | – | – | 8.5 nM | 466 nM | CC[C@H](C)[C@@H]1NC(=O)[C@H](CC2CC2)N(C)C(=O)C[C@@H](C)N(C)C(=O)[C@H](C2CCCC2)N(C)C(=O)C2(CCC2)NC(=O)[C@H](CC(F)F)N(C)C(=O)[C@H](CCc2cc(F)c(C(F)(F)F)c(F)c2)NC(=O)CN(C)C(=O)[C@H](Cc2ccc(C(F)(F)F)cc2)N2CC/C=C\C[C@@H](C2=O)N(C)C(=O)CN(C)C1=O [PP1405] | – | – | A (a compound having 10 or more and less than 20 is denoted as A) | A (a compound having 10 or more and less than 20 is denoted as A)
– | – | – | 0.05 nM | 16.5 nM | CC[C@H](C)[C@@H]1NC(=O)[C@H](CC)N(C)C(=O)C[C@@H](C(=O)N(C)C)N(C)C(=O)[C@H](C2CCCC2)N(C)C(=O)C2(CCC2)NC(=O)[C@@H]2C[C@@H](C(F)(F)F)CN2C(=O)[C@H](CCc2cc(F)c(C(F)(F)F)c(F)c2)NC(=O)CN(C)C(=O)[C@H](Cc2ccc(C(F)(F)F)cc2)N2CC/C=C\C[C@@H](C2=O)N(C)C(=O)CN(C)C1=O [PP1133] | – | – | A (a compound having 10 or more and less than 20 is denoted as A) | A (a compound having 10 or more and less than 20 is denoted as A)
– | – | – | 0.073 nM | 3.7 nM | CCCC[C@H]1C(=O)N[C@@H]([C@@H](C)CC)C(=O)N(C)CC(=O)N(C)[C@H]2C/C=C\CCN(C2=O)[C@@H](Cc2ccc(C(F)(F)F)cc2)C(=O)N(C)CC(=O)N[C@@H](CCc2cc(F)c(C(F)(F)F)c(F)c2)C(=O)N2C[C@H](OCC)C[C@H]2C(=O)NC2(CCCC2)C(=O)N(C)[C@@H](C2CCCC2)C(=O)N(C)[C@H](C(=O)N(C)C)CC(=O)N1C [PP1397] | – | – | A (a compound having 10 or more and less than 20 is denoted as A) | A (a compound having 10 or more and less than 20 is denoted as A)
– | – | – | 0.11 nM | 14 nM | CC[C@H](C)[C@@H]1NC(=O)[C@H](CC)N(C)C(=O)C[C@@H](C(=O)N2CCOCC2)N(C)C(=O)[C@H](C2CCCC2)N(C)C(=O)C2(CCC2)NC(=O)[C@@H]2CCCN2C(=O)[C@H](CCc2cc(F)c(C(F)(F)F)c(F)c2)NC(=O)CN(C)C(=O)[C@H](Cc2ccc(C(F)(F)F)cc2)N2C[C@H](C)[C@H](C)C[C@@H](C2=O)N(C)C(=O)CN(C)C1=O [PP1366] | – | – | A (a compound having 10 or more and less than 20 is denoted as A) | B (a compound having 3 or more and less than 10 is denoted as B)
0.68 nM | 109 nM | – | – | – | CCO[C@@H]1C[C@H]2C(=O)NC3(CC(C)(C)C3)C(=O)N(C)[C@@H](C3CCCC3)C(=O)N(C)[C@H](C(=O)N(C)C)CC(=O)N(C)[C@@H]([C@@H](C)OC)C(=O)N[C@@H]([C@@H](C)CC)C(=O)N3CCC[C@H]3C(=O)N(C)[C@H]3C/C=C\CCN(C3=O)[C@@H](Cc3ccc(C)cc3)C(=O)N(C)CC(=O)N[C@@H](CCc3ccc(C(F)(F)F)c(Cl)c3)C(=O)N2C1 [PP3215] | A (a compound having 10 or more and less than 20 is denoted as A) | A (a compound having 10 or more and less than 20 is denoted as A) | – | –
0.82 nM | 11 nM | – | – | – | CCO[C@@H]1C[C@H]2C(=O)OC3(CCC3)C(=O)N(C)[C@@H](C3CCCC3)C(=O)N(C)[C@H](C(=O)N(C)C)CC(=O)N(C)[C@@H]([C@H](C)OC)C(=O)N[C@@H]([C@@H](C)CC)C(=O)N3CCC[C@H]3C(=O)N(C)[C@H]3C/C=C\CCN(C3=O)[C@@H](Cc3ccc(C)cc3)C(=O)N(C)CC(=O)N[C@@H](CCc3ccc(C(F)(F)F)c(OC)c3)C(=O)N2C1 [PP3395] | A (a compound having 10 or more and less than 20 is denoted as A) | B (a compound having 3 or more and less than 10 is denoted as B) | – | –
– | 28.1 nM | 1.2 nM | – | – | CC[C@H](C)[C@@H]1NC(=O)[C@H](COC)N(C)C(=O)C[C@@H](C(=O)N(C)C)N(C)C(=O)[C@H](C2CCCC2)N(C)C(=O)C2(CC(C)(C)C2)NC(=O)[C@@H]2C[C@H](C)CN2C(=O)[C@H](CCc2ccc(C(F)(F)F)c(OC)c2)NC(=O)CN(C)C(=O)[C@H](Cc2ccc(C)cc2)N2CC/C=C\C[C@@H](C2=O)N(C)C(=O)[C@@H]2C[C@H](C)CN2C1=O [PP2386] | A (a compound having 10 or more and less than 20 is denoted as A) | B (a compound having 3 or more and less than 10 is denoted as B) | – | –
0.38 nM | 7.2 nM | – | – | – | C#CC[C@H]1C(=O)N[C@@H]([C@@H](C)CC)C(=O)N2CCC[C@H]2C(=O)N(C)[C@H]2C/C=C\CCN(C2=O)[C@@H](Cc2ccc(C)cc2)C(=O)N(C)CC(=O)N[C@@H](CCc2ccc(C(F)(F)F)c(OC)c2)C(=O)N2C[C@H](OCC)C[C@H]2C(=O)OC2(CCC2)C(=O)N(C)[C@@H](C2CCCC2)C(=O)N(C)[C@H](C(=O)N(C)C)CC(=O)N1C [PP3389] | A (a compound having 10 or more and less than 20 is denoted as A) | B (a compound having 3 or more and less than 10 is denoted as B) | – | –
0.13 nM | 20.2 nM | – | – | – | CCO[C@@H]1C[C@H]2C(=O)NC3(CC(C)(C)C3)C(=O)N(C)[C@@H](C3CCCC3)C(=O)N(C)[C@H](C(=O)N(C)C)CC(=O)N[C@@H](CC(C)C)C(=O)N[C@@H]([C@@H](C)CC)C(=O)N(C)CC(=O)N(C)[C@H]3C/C=C\CCN(C3=O)[C@@H](Cc3ccc(C(F)(F)F)cc3)C(=O)N(C)CC(=O)N[C@@H](CCc3ccc(C(F)(F)F)c(OC)c3)C(=O)N2C1 [PP3445] | A (a compound having 10 or more and less than 20 is denoted as A) | A (a compound having 10 or more and less than 20 is denoted as A) | – | –
0.32 nM | 12.8 nM | – | – | – | CCC[C@H]1C(=O)N[C@@H]([C@@H](C)CC)C(=O)N(C)CC(=O)N(C)[C@H]2C/C=C\CCN(C2=O)[C@@H](Cc2ccc(C(F)(F)F)cc2)C(=O)N(C)CC(=O)N[C@@H](CCc2ccc(C(F)(F)F)c(OC)c2)C(=O)N2CC3(CC3)C[C@H]2C(=O)NC2(CCC2)C(=O)N(C)[C@@H](C(CC)CC)C(=O)N(C)[C@H](C(=O)N(C)C)CC(=O)N1C [PP3408] | AA (a compound having 20 or more is denoted as AA) | A (a compound having 10 or more and less than 20 is denoted as A) | – | –
